Measurements: patent US20230085307A1, “PYRIDAZINONE COMPOUND AND HERBICIDE” (NISSAN CHEMICAL CORPORATION, priority 2019, published 2023)

How the values were obtained:
persian speedwell [1] = test: Test Example 5: herbicidal effect by foliage application, plastic box (Table 20, symbol R); assay type: in vivo, Persian speedwell (Veronica persica); settings: amount of applied herbicide 320 g/ha; foliage application after 14-day growth; evaluated three weeks after application
Summary of the method: (§1)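 Plants sown in sterilized diluvial soil and grown 14 days in a greenhouse at 25° C to 30° C, then sprayed on the foliage with the compound's emulsion diluted in water to a predetermined herbicide amount. Injury to weeds and crops scored three weeks after application on a visual rating scale.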

persian speedwell [2] = test: Test Example 4: herbicidal effect by soil treatment (Table 19, symbol R); assay type: in vivo, Persian speedwell (Veronica persica); settings: amount of applied herbicide 320 g/ha
Summary of the method: (§2)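 Three weeks of greenhouse growth at 25° C. to 30° C. followed a uniform surface spray of water-diluted emulsion at a predetermined herbicide amount. Seeds had been sown beforehand under about 1.5 cm of sterilized diluvial soil. Grading followed criteria set out in an earlier test.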

Italian ryegrass [3] = test: Test Example 5: herbicidal effect by foliage application, plastic box (Table 20, symbol K); assay type: in vivo, Italian ryegrass (Lolium multiflorum); settings: amount of applied herbicide 320 g/ha; foliage application after 14-day growth; evaluated three weeks after application
Summary of the method: as §1

southern crabgrass [4] = test: Test Example 5: herbicidal effect by foliage application, plastic box (Table 20, symbol F); assay type: in vivo, southern crabgrass (Digitaria ciliaris); settings: amount of applied herbicide 320 g/ha; foliage application after 14-day growth; evaluated three weeks after application
Summary of the method: as §1

Japanese bulrush = test: Test Example 1: herbicidal activity, application before weed generation under submerged conditions (Table 16, symbol B); assay type: in vivo, Japanese bulrush (Schoenoplectus juncoides); settings: amount of applied herbicide 320 g/ha
Summary of the method: (§3)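 Emulsion formulation, water-diluted to set dose, was put onto the flooded surface (4 cm depth, alluvial soil) the same day weeds were sown and 2.5-leaf rice transplanted. After 3 weeks at 25-30 °C under glass, each species was rated 0 (≤5% kill) to 5 (≥90% kill).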

velvetleaf [5] = test: Test Example 5: herbicidal effect by foliage application, plastic box (Table 20, symbol M); assay type: in vivo, velvetleaf (Abutilon theophrasti); settings: amount of applied herbicide 320 g/ha; foliage application after 14-day growth; evaluated three weeks after application
Summary of the method: as §1

blackgrass [6] = test: Test Example 4: herbicidal effect by soil treatment (Table 19, symbol J); assay type: in vivo, blackgrass (Alopecurus myosuroides); settings: amount of applied herbicide 320 g/ha
Summary of the method: as §2

Chinese sprangletop = test: Test Example 3: herbicidal effect by foliage application, Wagner pot (Table 18, symbol D); assay type: in vivo, chinese sprangletop (Leptochloa chinensis); settings: 320 g/ha
Summary of the method: (§4)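 Plants were sown in alluvial soil held under 0.1–0.5 cm standing water and grown 14 days in a greenhouse at 25–30 °C. An emulsifiable formulation, water-diluted to the set dose, was then sprayed onto the foliage, and effects were scored three weeks later using previously defined criteria.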

rice flat sedge = test: Test Example 3: herbicidal effect by foliage application, Wagner pot (Table 18, symbol E); assay type: in vivo, rice flat sedge (Cyperus iria); settings: 320 g/ha
Summary of the method: as §4

green foxtail [7] = test: Test Example 4: herbicidal effect by soil treatment (Table 19, symbol G); assay type: in vivo, green foxtail (Setaria viridis); settings: amount of applied herbicide 320 g/ha
Summary of the method: as §2

late watergrass = test: Test Example 1: herbicidal activity, application before weed generation under submerged conditions (Table 16, symbol A); assay type: in vivo, late watergrass (Echinochloa oryzicola); settings: amount of applied herbicide 320 g/ha
Summary of the method: as §3

chickweed [8] = test: Test Example 4: herbicidal effect by soil treatment (Table 19, symbol P); assay type: in vivo, common chickweed (Stellaria media); settings: amount of applied herbicide 320 g/ha
Summary of the method: as §2

wild oat [9] = test: Test Example 5: herbicidal effect by foliage application, plastic box (Table 20, symbol I); assay type: in vivo, wild oat (Avena fatua); settings: amount of applied herbicide 320 g/ha; foliage application after 14-day growth; evaluated three weeks after application
Summary of the method: as §1

redroot pigweed [10] = test: Test Example 5: herbicidal effect by foliage application, plastic box (Table 20, symbol N); assay type: in vivo, redroot pigweed (Amaranthus retroflexus); settings: amount of applied herbicide 320 g/ha; foliage application after 14-day growth; evaluated three weeks after application
Summary of the method: as §1

barnyard grass [11] = test: Test Example 5: herbicidal effect by foliage application, plastic box (Table 20, symbol H); assay type: in vivo, barnyard grass (Echinochloa crus-galli); settings: amount of applied herbicide 320 g/ha; foliage application after 14-day growth; evaluated three weeks after application
Summary of the method: as §1

velvetleaf [12] = test: Test Example 4: herbicidal effect by soil treatment (Table 19, symbol M); assay type: in vivo, velvetleaf (Abutilon theophrasti); settings: amount of applied herbicide 320 g/ha
Summary of the method: as §2

Italian ryegrass [13] = test: Test Example 4: herbicidal effect by soil treatment (Table 19, symbol K); assay type: in vivo, Italian ryegrass (Lolium multiflorum); settings: amount of applied herbicide 320 g/ha
Summary of the method: as §2

southern crabgrass [14] = test: Test Example 4: herbicidal effect by soil treatment (Table 19, symbol F); assay type: in vivo, southern crabgrass (Digitaria ciliaris); settings: amount of applied herbicide 320 g/ha
Summary of the method: as §2

oval-leafed pondweed = test: Test Example 1: herbicidal activity, application before weed generation under submerged conditions (Table 16, symbol C); assay type: in vivo, oval-leafed pondweed (Monochoria vaginalis); settings: amount of applied herbicide 320 g/ha
Summary of the method: as §3

green foxtail [15] = test: Test Example 5: herbicidal effect by foliage application, plastic box (Table 20, symbol G); assay type: in vivo, green foxtail (Setaria viridis); settings: amount of applied herbicide 320 g/ha; foliage application after 14-day growth; evaluated three weeks after application
Summary of the method: as §1

redroot pigweed [16] = test: Test Example 4: herbicidal effect by soil treatment (Table 19, symbol N); assay type: in vivo, redroot pigweed (Amaranthus retroflexus); settings: amount of applied herbicide 320 g/ha
Summary of the method: as §2

blackgrass [17] = test: Test Example 5: herbicidal effect by foliage application, plastic box (Table 20, symbol J); assay type: in vivo, blackgrass (Alopecurus myosuroides); settings: amount of applied herbicide 320 g/ha; foliage application after 14-day growth; evaluated three weeks after application
Summary of the method: as §1

lambsquarters [18] = test: Test Example 4: herbicidal effect by soil treatment (Table 19, symbol O); assay type: in vivo, lambsquarters (Chenopodium album); settings: amount of applied herbicide 320 g/ha
Summary of the method: as §2

lambsquarters [19] = test: Test Example 5: herbicidal effect by foliage application, plastic box (Table 20, symbol O); assay type: in vivo, lambsquarters (Chenopodium album); settings: amount of applied herbicide 320 g/ha; foliage application after 14-day growth; evaluated three weeks after application
Summary of the method: as §1

windgrass [20] = test: Test Example 4: herbicidal effect by soil treatment (Table 19, symbol L); assay type: in vivo, windgrass (Apera spica-venti); settings: amount of applied herbicide 320 g/ha
Summary of the method: as §2

chickweed [21] = test: Test Example 5: herbicidal effect by foliage application, plastic box (Table 20, symbol P); assay type: in vivo, common chickweed (Stellaria media); settings: amount of applied herbicide 320 g/ha; foliage application after 14-day growth; evaluated three weeks after application
Summary of the method: as §1

barnyard grass [22] = test: Test Example 3: herbicidal effect by foliage application, Wagner pot (Table 18, symbol H); assay type: in vivo, barnyard grass (Echinochloa crus-galli); settings: 320 g/ha
Summary of the method: as §4

windgrass [23] = test: Test Example 5: herbicidal effect by foliage application, plastic box (Table 20, symbol L); assay type: in vivo, windgrass (Apera spica-venti); settings: amount of applied herbicide 320 g/ha; foliage application after 14-day growth; evaluated three weeks after application
Summary of the method: as §1

wild oat [24] = test: Test Example 4: herbicidal effect by soil treatment (Table 19, symbol I); assay type: in vivo, wild oat (Avena fatua); settings: amount of applied herbicide 320 g/ha
Summary of the method: as §2

barnyard grass [25] = test: Test Example 4: herbicidal effect by soil treatment (Table 19, symbol H); assay type: in vivo, barnyard grass (Echinochloa crus-galli); settings: amount of applied herbicide 320 g/ha
Summary of the method: as §2

SMILES | Herbicidal effect by foliage application, R: persian speedwell (persian speedwell [1]) | R: persian speedwell, herbicidal effect grade (persian speedwell [2]) | Herbicidal effect by foliage application, K: Italian ryegrass (Italian ryegrass [3]) | Herbicidal effect by foliage application, F: southern crabgrass (southern crabgrass [4]) | Herbicidal effect, B: Japanese bulrush (Japanese bulrush) | Herbicidal effect by foliage application, M: velvetleaf (velvetleaf [5]) | J: blackgrass, herbicidal effect grade (blackgrass [6]) | herbicidal effect on Chinese sprangletop (D) (Chinese sprangletop) | herbicidal effect on rice flat sedge (E) (rice flat sedge) | G: green foxtail, herbicidal effect grade (green foxtail [7]) | Herbicidal effect, A: late watergrass (late watergrass) | P: chickweed, herbicidal effect grade (chickweed [8]) | Herbicidal effect by foliage application, I: wild oat (wild oat [9]) | Herbicidal effect by foliage application, N: redroot pigweed (redroot pigweed [10]) | Herbicidal effect by foliage application, H: barnyard grass (barnyard grass [11]) | M: velvetleaf, herbicidal effect grade (velvetleaf [12]) | K: Italian ryegrass, herbicidal effect grade (Italian ryegrass [13]) | F: southern crabgrass, herbicidal effect grade (southern crabgrass [14]) | Herbicidal effect, C: oval-leafed pondweed (oval-leafed pondweed) | Herbicidal effect by foliage application, G: green foxtail (green foxtail [15]) | further results
Cc1nn(C)c(=O)c(-c2c(-c3ccccc3OC(C)C)sc3cc(F)c(F)cc23)c1O [5-018] | 5 (Herbicidal rate of 90% or more (almost completely withered)) | 3 (Herbicidal rate of 40% or more and less than 70%) | 0 (Herbicidal rate of 5% or less (almost no effect)) | 0 (Herbicidal rate of 5% or less (almost no effect)) | 5 (Herbicidal rate of 90% or more (almost completely withered)) | 4 (Herbicidal rate of 70% or more and less than 90%) | 0 (Herbicidal rate of 5% or less (almost no effect)) | 0 (Herbicidal rate of 5% or less (almost no effect)) | 3 (Herbicidal rate of 40% or more and less than 70%) | 3 (Herbicidal rate of 40% or more and less than 70%) | 0 (Herbicidal rate of 5% or less (almost no effect)) | 4 (Herbicidal rate of 70% or more and less than 90%) | 0 (Herbicidal rate of 5% or less (almost no effect)) | 1 (Herbicidal rate of 5% or more and less than 20%) | 0 (Herbicidal rate of 5% or less (almost no effect)) | 0 (Herbicidal rate of 5% or less (almost no effect)) | 0 (Herbicidal rate of 5% or less (almost no effect)) | 0 (Herbicidal rate of 5% or less (almost no effect)) | 5 (Herbicidal rate of 90% or more (almost completely withered)) | 2 (Herbicidal rate of 20% or more and less than 40%) | N: redroot pigweed, herbicidal effect grade (redroot pigweed [16]): 2 (Herbicidal rate of 20% or more and less than 40%); Herbicidal effect by foliage application, J: blackgrass (blackgrass [17]): 1 (Herbicidal rate of 5% or more and less than 20%); O: lambsquarters, herbicidal effect grade (lambsquarters [18]): 1 (Herbicidal rate of 5% or more and less than 20%); Herbicidal effect by foliage application, O: lambsquarters (lambsquarters [19]): 0 (Herbicidal rate of 5% or less (almost no effect)); L: windgrass, herbicidal effect grade (windgrass [20]): 0 (Herbicidal rate of 5% or less (almost no effect)); Herbicidal effect by foliage application, P: chickweed (chickweed [21]): 5 (Herbicidal rate of 90% or more (almost completely withered)); herbicidal effect on barnyard grass (H) (barnyard grass [22]): 4 (Herbicidal rate of 70% or more and less than 90%); Herbicidal effect by foliage application, L: windgrass (windgrass [23]): 0 (Herbicidal rate of 5% or less (almost no effect)); I: wild oat, herbicidal effect grade (wild oat [24]): 0 (Herbicidal rate of 5% or less (almost no effect)); H: barnyard grass, herbicidal effect grade (barnyard grass [25]): 2 (Herbicidal rate of 20% or more and less than 40%)
CCCC(=O)Oc1c(C)nn(C)c(=O)c1-c1c(-c2ccc(OC(C)C)cc2)sc2cc(F)c(F)cc12 [5-020] | 5 (Herbicidal rate of 90% or more (almost completely withered)) | 3 (Herbicidal rate of 40% or more and less than 70%) | 0 (Herbicidal rate of 5% or less (almost no effect)) | 0 (Herbicidal rate of 5% or less (almost no effect)) | 0 (Herbicidal rate of 5% or less (almost no effect)) | 2 (Herbicidal rate of 20% or more and less than 40%) | 0 (Herbicidal rate of 5% or less (almost no effect)) | 0 (Herbicidal rate of 5% or less (almost no effect)) | 0 (Herbicidal rate of 5% or less (almost no effect)) | 0 (Herbicidal rate of 5% or less (almost no effect)) | 3 (Herbicidal rate of 40% or more and less than 70%) | 0 (Herbicidal rate of 5% or less (almost no effect)) | 0 (Herbicidal rate of 5% or less (almost no effect)) | 4 (Herbicidal rate of 70% or more and less than 90%) | 1 (Herbicidal rate of 5% or more and less than 20%) | 0 (Herbicidal rate of 5% or less (almost no effect)) | 0 (Herbicidal rate of 5% or less (almost no effect)) | 0 (Herbicidal rate of 5% or less (almost no effect)) | 0 (Herbicidal rate of 5% or less (almost no effect)) | 0 (Herbicidal rate of 5% or less (almost no effect)) | N: redroot pigweed, herbicidal effect grade (redroot pigweed [16]): 3 (Herbicidal rate of 40% or more and less than 70%); Herbicidal effect by foliage application, J: blackgrass (blackgrass [17]): 0 (Herbicidal rate of 5% or less (almost no effect)); O: lambsquarters, herbicidal effect grade (lambsquarters [18]): 0 (Herbicidal rate of 5% or less (almost no effect)); Herbicidal effect by foliage application, O: lambsquarters (lambsquarters [19]): 3 (Herbicidal rate of 40% or more and less than 70%); L: windgrass, herbicidal effect grade (windgrass [20]): 0 (Herbicidal rate of 5% or less (almost no effect)); Herbicidal effect by foliage application, P: chickweed (chickweed [21]): 4 (Herbicidal rate of 70% or more and less than 90%); herbicidal effect on barnyard grass (H) (barnyard grass [22]): 3 (Herbicidal rate of 40% or more and less than 70%); Herbicidal effect by foliage application, L: windgrass (windgrass [23]): 0 (Herbicidal rate of 5% or less (almost no effect)); I: wild oat, herbicidal effect grade (wild oat [24]): 0 (Herbicidal rate of 5% or less (almost no effect)); H: barnyard grass, herbicidal effect grade (barnyard grass [25]): 0 (Herbicidal rate of 5% or less (almost no effect))
